What was measured:
[1] = target: T1, olfactory receptor OR2AT4 (Homo sapiens, UniProt A6NND4); conditions: OR2AT4 expressed in the epithelium of human hair follicles; cited from earlier work
T1 sequence (A6NND4 1-320): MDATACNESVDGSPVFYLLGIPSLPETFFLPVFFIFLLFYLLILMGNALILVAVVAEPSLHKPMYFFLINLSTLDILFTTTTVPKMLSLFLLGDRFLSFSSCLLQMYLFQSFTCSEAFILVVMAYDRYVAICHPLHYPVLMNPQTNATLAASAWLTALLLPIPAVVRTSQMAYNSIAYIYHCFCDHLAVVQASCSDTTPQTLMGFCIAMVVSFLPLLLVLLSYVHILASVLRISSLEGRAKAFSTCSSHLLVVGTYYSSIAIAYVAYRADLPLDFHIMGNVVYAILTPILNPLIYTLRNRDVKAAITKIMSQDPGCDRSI

[2] = tested on: hair follicles in human full thickness scalp skin punches; assay: Microscopic hair cycle staging and hair cycle score in ex vivo cultured scalp skin; format: cell-based; conditions: for hair cycle score ± SEM: 100 = anagen, 200 = early catagen, 300 = mid catagen, 400 = late catagen, lower number = more hairs in anagen; for % of hair follicles in anagen phase / % of hair follicles in early catagen phase: two topical treatments (day 1 and 3), evaluated after 5 days of ex vivo culture
Experimental: Human full thickness scalp skin punches (6 mm diameter) with hair from the occipital region were obtained from a donor. The dissected human punches were cultured at 37° C. with 5% CO2 in a minimal media of William's E media (Gibco, Life Technologies) supplemented with 10 ng/ml hydrocortisone (Sigma Aldrich), 10 μg/ml insulin (Sigma Aldrich) and 1% penicllin/streptomycin (Gibco) to make William's Complete Media (WCM) modified as previously described (Edelkamp et al., Molecular Dermatology 2020, Langan et al., Exp Dermatol 2015). After 24 h resting culture (day 0), two topical treatments were Performed (day 1 and 3). The medium was changed at day 3. Punches were embedded in OCT Compound (Optimal Cutting Temperature Compound) after 5 days (day 5) of ex vivo culture and cryosectioned (7 μm sections). The experimental groups for the topical treatments are outlined in Table 3.
Hair cycle staging and hair cycle score are perfomed at the end of the culture and can be determined according to several established macroscopic and microscopic paremeters (Langan et al., Exp Dermatol 2015; Oh et al., JID 2016).
Hair follicles are microscopically evaluated for the hair cycle staging using Masson-Fontana histochemistry and Ki-67/TUNEL immunostaining as previously described (Kloepper at al., Exp Dermatol 2010; Langan et al., Exp Dermatol 2015). For each experimental group, the percentage of hair follicles in each hair cycle phase was calculated and is shown below.

human hair follicles = conditions: by decreasing apoptosis and increasing the production of growth factor IGF-1; cited from earlier work

CC1=CCC(CCC(C)C(C)O)C1(C)C (stereo not drawn) [#2 (Sand), 3-methyl-5-(2,2,3-trimethylcyclopent-3-en-1-yl)pentan-2-ol]
effect on the olfactory receptor OR2AT4 [1]: stimulatory effect | hair cycle score ± SEM [2]: 137.5 ± 12.5 arbitrary units | effect on anagen (in words) ([2]; topical application on ex vivo cultured scalp skin): prolongs anagen | % of hair follicles in anagen phase [2]: 63% | % of hair follicles in early catagen phase [2]: 38% | effect on hair growth ex vivo (human hair follicles): prolongs hair growth ex vivo

Nc1cc(N2CCCCC2)nc(N)[n+]1[O-] [#5 Minox), Minoxidil]
hair cycle score ± SEM [2]: 123.1 ± 12.16 arbitrary units | % of hair follicles in anagen phase [2]: 77% | % of hair follicles in early catagen phase [2]: 23%

Reference: patent US20240041890A1, “ANTI-HAIR-LOSS COMPOSITION” (WELLA GERMANY GMBH, priority 2020, published 2024)
